The record followed here is ChEMBL document CHEMBL1125499, “Enantiomeric N-substituted N-normetazocines: a comparative study of affinities at sigma, PCP, and mu opioid receptors” (J Med Chem, 1992).

pKi: −log10 of the molar value.

One experiment addresses Mu-type opioid receptor (Rattus norvegicus, UniProt P33535). The experiment can be described thus: Binding affinity against opioid receptor mu using [3H]-DAMGO as radioligand.
Experiment [1] in a line: Binding affinity against PCP receptor using [3H]TCP as radioligand.
A short description of experiment [2]: Ratio of binding affinities of pcp receptor(ki(nM)) to sigma opioid receptor(ki(nM)).
Experiment [3] in a line: Binding affinity against sigma opioid receptor using [3H]pentazocine as radioligand.
Experiment [4] is described as follows: Binding affinity against sigma opioid receptor using [3H](+)-3-PPP as radioligand.

Sequence of Mu-type opioid receptor (P33535 whole entry): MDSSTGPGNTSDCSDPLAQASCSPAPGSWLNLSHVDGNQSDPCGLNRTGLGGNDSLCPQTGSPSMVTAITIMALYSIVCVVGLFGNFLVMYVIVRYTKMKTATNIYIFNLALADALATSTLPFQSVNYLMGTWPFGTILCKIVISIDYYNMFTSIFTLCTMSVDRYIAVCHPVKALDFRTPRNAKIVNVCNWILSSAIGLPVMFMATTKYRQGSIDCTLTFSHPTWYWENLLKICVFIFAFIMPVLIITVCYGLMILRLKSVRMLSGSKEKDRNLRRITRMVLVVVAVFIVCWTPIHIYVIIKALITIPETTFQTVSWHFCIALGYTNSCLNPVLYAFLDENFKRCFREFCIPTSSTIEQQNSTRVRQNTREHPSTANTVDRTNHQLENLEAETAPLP

For orientation: pKi means the Ki on a negative log10 scale, so that one unit is a factor of ten. A lower pKi goes with a large Ki. As to `C[C@@H]1[C@@H]2Cc3ccc(O)cc3[C@]1(C)CCN2CCCc1ccccc1`, the pKi was 6.46 on Mu-type opioid receptor, 5.01 in experiment [1] and 8.94 in experiment [3]. For the same compound, the Ratio in experiment [2] amounted to 8440.

`C[C@@H]1[C@@H]2Cc3ccc(O)cc3[C@]1(C)CCN2CCCCc1ccccc1`: the pKi is 6.57 on Mu-type opioid receptor, less than 5.00 in experiment [1] and 8.49 in experiment [3]. In addition, the Ratio in experiment [2] is 3100.

For `C[C@H]1[C@H]2Cc3ccc(O)cc3[C@@]1(C)CCN2CCCc1ccccc1`, the values for the pKi (on Mu-type opioid receptor; in experiment [1]; in experiment [3]) were 7.70, 5.44 and 7.41, respectively. In addition, in experiment [2], the Ratio came out at 93.3.

Turning to `CC(C)CCN1CC[C@]2(C)c3cc(O)ccc3C[C@@H]1[C@@H]2C`, the pKi on Mu-type opioid receptor is 8.31; in experiment [1], 5.56; in experiment [3], 8.06. The Ratio in experiment [2] is 313.

On to `C[C@H]1[C@H]2Cc3ccc(O)cc3[C@]1(C)CCN2CCc1ccccc1`, for which the pKi is 9.70 on Mu-type opioid receptor, 5.73 in experiment [1] and 7.21 in experiment [3]. Moreover, the Ratio in experiment [2] amounted to 30.5.

Regarding `C[C@@H]1[C@@H]2Cc3ccc(O)cc3[C@]1(C)CCN2`, the negative-log Ki (pKi) is 6.33 at Mu-type opioid receptor and 7.52 in experiment [1].

Take `C/C=C\CN1CC[C@]2(C)c3cc(O)ccc3C[C@@H]1[C@@H]2C`: the pKi on Mu-type opioid receptor was 7.96; in experiment [1], 5.95; in experiment [4], 6.34.

As for `C=CCN1CC[C@]2(C)c3cc(O)ccc3C[C@@H]1[C@@H]2C`, the pKi at Mu-type opioid receptor is 8.44; in experiment [1], 6.30; in experiment [3], less than 5.52.

For the compound `C[C@H]1[C@H]2Cc3ccc(O)cc3[C@@]1(C)CCN2Cc1ccccc1`, the pKi is 7.01 on Mu-type opioid receptor, 5.19 in experiment [1] and 7.44 in experiment [3].

Turning to `C[C@@H]1[C@@H]2Cc3ccc(O)cc3[C@]1(C)CCN2Cc1ccccc1`, the results for the pKi (on Mu-type opioid receptor; in experiment [1]; in experiment [3]) were 5.79, less than 5.00 and 9.17, respectively.

Regarding `C/C=C/CN1CC[C@@]2(C)c3cc(O)ccc3C[C@H]1[C@H]2C`, the negative-log Ki (pKi) at Mu-type opioid receptor was 5.25; in experiment [1] it was 6.75; in experiment [4], 7.28.

Consider `C=C[C@@H](C)N1CC[C@@]2(C)c3cc(O)ccc3C[C@H]1[C@H]2C`, for which the pKi on Mu-type opioid receptor was 6.16; in experiment [1], 6.70.

Consider `CC#CCN1CC[C@@]2(C)c3cc(O)ccc3C[C@H]1[C@H]2C`, for which the pKi is 6.00 on Mu-type opioid receptor, 5.91 in experiment [1] and 7.03 in experiment [4].

Regarding `C=C[C@@H](C)N1CC[C@]2(C)c3cc(O)ccc3C[C@@H]1[C@@H]2C`, the pKi is 8.23 at Mu-type opioid receptor and 5.72 in experiment [1].

As for `C[C@H]1[C@H]2Cc3ccc(O)cc3[C@@]1(C)CCN2CCCCCc1ccccc1`, the pKi on Mu-type opioid receptor is 7.17; in experiment [1], less than 5.00; in experiment [3] it was 7.41. Besides, the Ratio in experiment [2] came to 260.

Turning to `C=CCN1CC[C@@]2(C)c3cc(O)ccc3C[C@H]1[C@H]2C`, the pKi was less than 5.00 at Mu-type opioid receptor and 6.65 in experiment [1].

For `C[C@H]1[C@H]2Cc3ccc(O)cc3[C@@]1(C)CCN2`, the pKi at Mu-type opioid receptor was 7.64; in experiment [1], 6.71; in experiment [3], 5.25.

For the compound `C/C=C\CN1CC[C@@]2(C)c3cc(O)ccc3C[C@H]1[C@H]2C`, the pKi on Mu-type opioid receptor was 5.77; in experiment [1] it was 6.42.

Regarding `C=C[C@H](C)N1CC[C@@]2(C)c3cc(O)ccc3C[C@H]1[C@H]2C`, the pKi on Mu-type opioid receptor was 5.64; in experiment [1], 7.05; in experiment [4], 6.80.

Regarding `CC#CCN1CC[C@]2(C)c3cc(O)ccc3C[C@@H]1[C@@H]2C`, the pKi at Mu-type opioid receptor was 8.29; in experiment [1], 6.44.

With `CC(C)=CCN1CC[C@@]2(C)c3cc(O)ccc3C[C@@H]1[C@@H]2C`, the results for the pKi (at Mu-type opioid receptor; in experiment [1]) were 7.89 and 6.07, respectively. In experiment [2], the Ratio was found to be 10.1.

For the compound `CC(C)CCN1CC[C@@]2(C)c3cc(O)ccc3C[C@H]1[C@H]2C`, the pKi on Mu-type opioid receptor is 5.46; in experiment [1], less than 5.00; in experiment [3] it was 8.65. Also, the Ratio in experiment [2] is greater than 4440.

Consider `C[C@@H]1[C@@H]2Cc3ccc(O)cc3[C@@]1(C)CCN2CCc1ccccc1`, for which the negative logarithm of the Ki (pKi) at Mu-type opioid receptor is 7.26; in experiment [1], less than 5.00; in experiment [3], 8.41. In addition, the Ratio in experiment [2] is greater than 2560.

As to `C[C@H]1[C@H]2Cc3ccc(O)cc3[C@]1(C)CCN2CC1CC1` [CYCLAZOCINE], the pKi is 9.74 on Mu-type opioid receptor and 6.97 in experiment [1].

As for `CC(C)=CCN1CC[C@]2(C)c3cc(O)ccc3C[C@H]1[C@H]2C` [(+)-PENTAZOCINE], the pKi in experiment [1] was 5.39. In addition, the Ratio in experiment [2] worked out at 1300.

Turning to `C[C@@H]1[C@@H]2Cc3ccc(O)cc3[C@]1(C)CCN2C`, the negative-log Ki (pKi) at Mu-type opioid receptor was 5.30; in experiment [1], 7.39.

For the compound `C[C@@H]1[C@@H]2Cc3ccc(O)cc3[C@]1(C)CCN2CCCCCc1ccccc1`, the pKi on Mu-type opioid receptor was 6.59; in experiment [1], less than 5.00; in experiment [3] it was 8.58. Besides, the Ratio in experiment [2] is greater than 3790.

On to `C[C@H]1[C@H]2Cc3ccc(O)cc3[C@@]1(C)CCN2CCCCc1ccccc1`, for which the results for the negative logarithm of the Ki (pKi) (on Mu-type opioid receptor; in experiment [1]; in experiment [3]) were 8.40, 5.22 and 7.07, respectively. For the same compound, in experiment [2], the Ratio came to 70.

Take `C/C=C/CN1CC[C@]2(C)c3cc(O)ccc3C[C@@H]1[C@@H]2C`: the figures for the pKi (on Mu-type opioid receptor; in experiment [1]) were 8.05 and 6.46, respectively.

On to `C=C[C@H](C)N1CC[C@]2(C)c3cc(O)ccc3C[C@@H]1[C@@H]2C`, for which the pKi on Mu-type opioid receptor is 8.52; in experiment [1], 5.66.

With `C[C@@H]1[C@@H]2Cc3ccc(O)cc3[C@]1(C)CCN2C/C=C/Cl`, the pKi on Mu-type opioid receptor is 5.70; in experiment [1] it was 6.60; in experiment [3], 7.98. Also, the Ratio in experiment [2] stood at 24.

For `C[C@H]1[C@H]2Cc3ccc(O)cc3[C@@]1(C)CCN2C/C=C/Cl`, the pKi at Mu-type opioid receptor was 8.82; in experiment [1], 6.33; in experiment [3], 6.39. For the same compound, the Ratio in experiment [2] was found to be 1.2.

As for `C[C@H]1[C@H]2Cc3ccc(O)cc3[C@@]1(C)CCN2C`, the values for the pKi (on Mu-type opioid receptor; in experiment [1]) were 7.96 and 5.92, respectively.

In the case of `C[C@@H]1[C@@H]2Cc3ccc(O)cc3[C@@]1(C)CN2CC1CC1`, the pKi on Mu-type opioid receptor is 5.91; in experiment [1], 6.82; in experiment [3], 7.76. Moreover, in experiment [2], the Ratio is 8.9.
